Read-outs that look alike come from different tables or passages of the source.
Assays:
[1] = molecular target: human recombinant 5-HT2A receptor (Homo sapiens (Human), UniProt P28223); test: 5-HT2A receptor binding inhibition test ([3H]-Ketanserin); conditions: Jump-In HEK cell membrane, 25° C. 1.5 hours
Procedure, shortened: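 Membranes from Jump-In HEK cells expressing the receptor were incubated with [3H]-ketanserin at about its Kd (from Scatchard analysis) in Tris-HCl pH 7.4 buffer for 1.5 h at 25° C, then filtered and counted. Non-specific binding was defined with 500 μmol/L serotonin, and Ki was taken from dose-response curves.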

[2] = molecular target: human recombinant 5-HT2C receptor (Homo sapiens (Human), UniProt P28335); test: 5-HT2C receptor binding inhibition test ([3H]-Mesulergine); conditions: Jump-In HEK cell membrane, 37° C. 2 hours
Sequence of human recombinant 5-HT2C receptor (P28335 33-458): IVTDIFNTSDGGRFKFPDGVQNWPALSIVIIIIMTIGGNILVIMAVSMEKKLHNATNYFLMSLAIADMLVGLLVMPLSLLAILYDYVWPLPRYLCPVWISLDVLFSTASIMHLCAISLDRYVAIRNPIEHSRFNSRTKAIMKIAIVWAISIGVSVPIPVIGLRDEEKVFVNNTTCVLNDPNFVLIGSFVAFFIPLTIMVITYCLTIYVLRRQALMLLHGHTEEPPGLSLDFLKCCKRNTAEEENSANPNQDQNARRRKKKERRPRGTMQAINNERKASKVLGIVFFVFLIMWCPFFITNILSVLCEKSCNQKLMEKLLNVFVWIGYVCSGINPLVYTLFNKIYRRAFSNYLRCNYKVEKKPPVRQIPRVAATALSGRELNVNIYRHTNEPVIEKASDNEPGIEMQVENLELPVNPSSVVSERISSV
Procedure, shortened: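 Radioligand displacement on HEK membranes expressing human recombinant 5-HT2C (0.5 μg/well), [3H]-mesulergine near its Kd, in pH 7.4 Tris-HCl buffer with NaCl, MgCl2, KCl, CaCl2 and 0.1% BSA, 2 h at 37° C. Bound radioactivity measured after GF/B filtration; non-specific binding defined with 500 μmol/L serotonin, Ki from dose-response curve.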

Sequence of human recombinant 5-HT2A receptor (P28223 whole entry): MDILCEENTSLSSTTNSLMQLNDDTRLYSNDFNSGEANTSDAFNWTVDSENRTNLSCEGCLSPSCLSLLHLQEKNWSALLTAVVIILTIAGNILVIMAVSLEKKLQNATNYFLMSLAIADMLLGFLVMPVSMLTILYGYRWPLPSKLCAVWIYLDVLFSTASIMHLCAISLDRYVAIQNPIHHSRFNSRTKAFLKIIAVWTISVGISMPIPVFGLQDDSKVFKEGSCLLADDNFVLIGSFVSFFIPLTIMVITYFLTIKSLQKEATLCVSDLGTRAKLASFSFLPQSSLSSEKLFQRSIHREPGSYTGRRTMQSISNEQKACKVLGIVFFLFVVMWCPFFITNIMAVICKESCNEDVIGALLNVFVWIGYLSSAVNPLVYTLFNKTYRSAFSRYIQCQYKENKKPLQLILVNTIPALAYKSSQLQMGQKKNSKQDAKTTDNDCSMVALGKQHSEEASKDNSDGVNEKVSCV

Question: With `CC(C)COc1ccc(CN(Cc2cnn(C)n2)C2=NOC3(CCN(C)CC3)N2)c(F)c1` [Compound I-106] as the compound, how does the Ki ([1]; read-out: h-5-HT2A Ki) read?
Answer: Its Ki is < 10 nM.

Question: What about the Ki ([2]; read-out: h-5-HT2C Ki) of the same compound?
Answer: The Ki was < 10 nM.

Question: For `CC(C)COc1ccc(CN(Cc2cnn(C)n2)C2=NOC3(CCN(C)CC3)N2)cc1F` [Compound I-107], which Ki ([1]; read-out: h-5-HT2A Ki) is on record?
Answer: The Ki was < 10 nM.

Question: And the Ki ([2]; read-out: h-5-HT2C Ki)?
Answer: Its Ki is < 10 nM.

Question: What does the source list for `CN1CCC2(CC1)NC(N(Cc1coc(C3CC3)n1)Cc1ccc(OCC(F)(F)F)cc1F)=NO2` [Compound I-108]?
Answer: Ki ([1]; read-out: h-5-HT2A Ki): < 10 nM; Ki ([2]; read-out: h-5-HT2C Ki): < 10 nM

Question: For `CCCc1ccc(CN(Cc2coc(C)n2)C2=NOC3(CCN(C)CC3)N2)c(F)c1` [Compound I-109], which Ki ([1]; read-out: h-5-HT2A Ki) is on record?
Answer: Its Ki is < 10 nM.

Question: What about the Ki ([2]; read-out: h-5-HT2C Ki) of the same compound?
Answer: The Ki was < 10 nM.

Question: How did the Ki ([1]; read-out: h-5-HT2A Ki) turn out when `CCCc1ccc(CN(Cc2coc(C)n2)C2=NOC3(CCN(C)CC3)N2)cc1F` [Compound I-110] was run?
Answer: Its Ki is < 10 nM.

Question: And the Ki ([2]; read-out: h-5-HT2C Ki)?
Answer: The Ki was < 10 nM.

Question: What does the source list for `CCCCOc1ccc(CN(Cc2cnn(C)n2)C2=NOC3(CCN(C)CC3)N2)cc1F` [Compound I-111]?
Answer: Ki ([1]; read-out: h-5-HT2A Ki): < 10 nM; Ki ([2]; read-out: h-5-HT2C Ki): < 10 nM

Question: What does the source list for `CCCCOc1ccc(CN(Cc2cnn(C)n2)C2=NOC3(CCN(C)CC3)N2)c(F)c1` [Compound I-112]?
Answer: Ki ([1]; read-out: h-5-HT2A Ki): < 10 nM; Ki ([2]; read-out: h-5-HT2C Ki): < 10 nM

Question: `CN1CCC2(CC1)NC(N(Cc1ccc(OCC(F)(F)F)c(F)c1)Cc1coc(C3CC3)n1)=NO2` [Compound I-116] was tested. Which Ki ([1]; read-out: h-5-HT2A Ki) did it give?
Answer: The Ki was < 10 nM.

Question: What about the Ki ([2]; read-out: h-5-HT2C Ki) of the same compound?
Answer: Its Ki is < 10 nM.

Question: `Cc1nc(CN(Cc2ccc(OCC(C)C)cc2)C2=NOC3(CCN(C)CC3)N2)c(C)o1` [Compound I-117] was tested. Which Ki ([1]; read-out: h-5-HT2A Ki) did it give?
Answer: Its Ki is 10 to 100 nM.

Question: And the Ki ([2]; read-out: h-5-HT2C Ki)?
Answer: The Ki was 10 to 100 nM.

Question: Which results are given for `CC(C)COc1ccc(CN(Cc2coc(-c3ccccc3)n2)C2=NOC3(CCN(C)CC3)N2)cc1` [Compound I-118]?
Answer: Ki ([1]; read-out: h-5-HT2A Ki): 100 to 500 nM; Ki ([2]; read-out: h-5-HT2C Ki): 100 to 500 nM

Question: `Cc1nc(CN(Cc2ccc(Cc3ccccc3)cc2)C2=NOC3(CCN(C)CC3)N2)co1` [Compound I-119] was tested. Which Ki ([1]; read-out: h-5-HT2A Ki) did it give?
Answer: The Ki was < 10 nM.

Question: What about the Ki ([2]; read-out: h-5-HT2C Ki) of the same compound?
Answer: Its Ki is < 10 nM.

Question: How did the Ki ([1]; read-out: h-5-HT2A Ki) turn out when `COc1ccc(CN(Cc2coc(C)n2)C2=NOC3(CCN(C)CC3)N2)cn1` [Compound I-120] was run?
Answer: The Ki was 10 to 100 nM.

Question: And the Ki ([2]; read-out: h-5-HT2C Ki)?
Answer: The Ki was 10 to 100 nM.

Question: What does the source list for `COc1ccc(CN(Cc2coc(C)n2)C2=NOC3(CCN(C)CC3)N2)nc1` [Compound I-121]?
Answer: Ki ([1]; read-out: h-5-HT2A Ki): 10 to 100 nM; Ki ([2]; read-out: h-5-HT2C Ki): 10 to 100 nM

Question: With `Cc1nc(CN(Cc2csc3ccccc23)C2=NOC3(CCN(C)CC3)N2)co1` [Compound I-122] as the compound, how does the Ki ([1]; read-out: h-5-HT2A Ki) read?
Answer: Its Ki is < 10 nM.

Question: What about the Ki ([2]; read-out: h-5-HT2C Ki) of the same compound?
Answer: Its Ki is < 10 nM.

Question: With `Cc1nc(CN(Cc2cc3ccccc3s2)C2=NOC3(CCN(C)CC3)N2)co1` [Compound I-123] as the compound, how does the Ki ([1]; read-out: h-5-HT2A Ki) read?
Answer: Its Ki is < 10 nM.

Question: And the Ki ([2]; read-out: h-5-HT2C Ki)?
Answer: Its Ki is < 10 nM.

Question: Which Ki ([1]; read-out: h-5-HT2A Ki) does the source give for `CCOCc1ccc(CN(Cc2coc(C)n2)C2=NOC3(CCN(C)CC3)N2)cc1` [Compound I-124] here?
Answer: Its Ki is 10 to 100 nM.

Question: And the Ki ([2]; read-out: h-5-HT2C Ki)?
Answer: The Ki was 10 to 100 nM.

Question: What does the source list for `CCCOc1ccc(CN(Cc2coc(C)n2)C2=NOC3(CCN(C)CC3)N2)c(Cl)c1` [Compound I-126]?
Answer: Ki ([1]; read-out: h-5-HT2A Ki): < 10 nM; Ki ([2]; read-out: h-5-HT2C Ki): < 10 nM

Question: Which Ki ([1]; read-out: h-5-HT2A Ki) does the source give for `Cc1nc(CN(Cc2ccc(OCC(C)C)c(F)c2)C2=NOC3(CCN(C)CC3)N2)co1` [Compound I-127] here?
Answer: Its Ki is < 10 nM.

Question: What about the Ki ([2]; read-out: h-5-HT2C Ki) of the same compound?
Answer: The Ki was < 10 nM.

Question: How did the Ki ([1]; read-out: h-5-HT2A Ki) turn out when `CCCOc1ccc(CN(Cc2coc(C)n2)C2=NOC3(CCNCC3)N2)c(Cl)c1` [Compound I-129] was run?
Answer: Its Ki is < 10 nM.

Question: What about the Ki ([2]; read-out: h-5-HT2C Ki) of the same compound?
Answer: Its Ki is < 10 nM.

Question: For `Cc1nc(CN(Cc2ccc(OCC(C)C)c(F)c2)C2=NOC3(CCNCC3)N2)co1` [Compound I-130], which Ki ([1]; read-out: human serotonin 5-HT2A receptor binding activity Ki) is on record?
Answer: Its Ki is 1.29 nM.

Question: What about the Ki ([2]; read-out: human serotonin 5-HT2C receptor binding activity Ki) of the same compound?
Answer: Its Ki is 0.535 nM.

Question: How did the Ki ([1]; read-out: h-5-HT2A Ki) turn out when `Cc1nc(CN(Cc2ccc(OCC(C)C)cc2F)C2=NOC3(CCNCC3)N2)co1` [Compound I-131] was run?
Answer: The Ki was < 10 nM.

Question: What about the Ki ([2]; read-out: h-5-HT2C Ki) of the same compound?
Answer: The Ki was < 10 nM.

Question: Which Ki ([1]; read-out: h-5-HT2A Ki) does the source give for `CN1CCC2(CC1)NC(N(Cc1ccc(OCC(F)(F)F)cc1)Cc1coc(CF)n1)=NO2` [Compound I-132] here?
Answer: The Ki was < 10 nM.

Question: What about the Ki ([2]; read-out: h-5-HT2C Ki) of the same compound?
Answer: The Ki was < 10 nM.

Question: Which Ki ([1]; read-out: h-5-HT2A Ki) does the source give for `CCCCc1ccc(CN(Cc2cnn(C)n2)C2=NOC3(CCN(C)CC3)N2)cc1` [Compound I-133] here?
Answer: Its Ki is < 10 nM.

Question: And the Ki ([2]; read-out: h-5-HT2C Ki)?
Answer: The Ki was < 10 nM.

Question: `CCCCOc1ccc(CN(Cc2coc(C)n2)C2=NOC3(CCNCC3)N2)cc1` [Compound I-134] was tested. Which Ki ([1]; read-out: h-5-HT2A Ki) did it give?
Answer: The Ki was < 10 nM.

Question: And the Ki ([2]; read-out: h-5-HT2C Ki)?
Answer: The Ki was < 10 nM.

Source: patent publication US20250026765A1, “SPIROHETEROCYCLE DERIVATIVE HAVING SEROTONIN RECEPTOR BINDING ACTIVITY” (Shionogi & Co., Ltd., priority 2021, published 2025)
